≈ marks a conversion by molar mass, not a printed value.
Assays:
M. globosa ATCC MYA-4612 [1] = assay: Disc-diffusion assay, perfumery materials in Shampoo Base B, M. globosa; assay type: cell-based, Malassezia globosa; conditions: 0.25% perfumery material in 25% Shampoo Base B solution, 6 mm disc, 6 days
Source text: (§1) The present inventors sought to investigate how whether the anti-dandruff effect of compounds and compositions could be used in shampoo formulations. For this reason, they prepared two shampoo bases. Shampoo Base A is a composition with Sodium Laureth Sulfate and cocamidopropyl betaine as the primary ingredients, while Shampoo Base B is a composition with Ammonium Lauryl Sulfate and Ammonium Laureth Sulfate as primary ingredients. Anti-Malassezia effect of perfumery materials in shampoo was determined using disc-diffusion assay, based on the method of J Mycol Infect 2018; 23: 91-98. […] Aliquots (20 μL) of each sample solution was added to each disc. Agar plates were incubated at 30° C. for 6 days. After incubation, diameters of the clear inhibition zones around the discs were measured.

[2] = tested on: M. restricta ATCC MYA-4611; assay: Disc-diffusion assay, perfumery materials in Shampoo Base B, M. restricta; assay type: cell-based, Malassezia restricta; conditions: 0.25% perfumery material in 25% Shampoo Base B solution, 6 mm disc, 6 days
Source text: as §1

M. furfur DSM 6170 [3] = assay: Disc-diffusion assay, (2E,6Z)-2,6-nonadienal with anti-dandruff actives in DMSO, M. furfur; assay type: cell-based, Malassezia furfur; conditions: 3 days
Experimental: The anti-Malassezia effect of perfumery materials in combination of anti-dandruff actives using the disk-diffusion assay, modified based on the method of J Mycol Infect 2018; 23: 91-98. working culture of M. furfur DSM 6170 was prepared from −80 C stock culture on mDixon agar plate, and cells were suspended in 0.9% saline, and spread onto mDixon agar surface to prepare lawn plates. Discs (Whatman, 6 mm in diameter) were placed on inoculated mDixon agar plates. Test sample solutions are prepared in DMSO. Aliquots (20 μL) of each sample solution was added to each disc. Agar plates were incubated at 30° C. for 3 days. After incubation, diameters of the clear inhibition zones around the discs were measured.

[4] = tested on: M. restricta ATCC MYA-4611; assay: Cylinder diffusion assay, hair conditioner base with 0.35% PO and mixtures, M. restricta; assay type: cell-based, Malassezia restricta; conditions: conditioner containing 0.35% PO without mixture; 25% conditioner solution, 80 μL cylinder, 4 days
Experimental: A hair conditioner base was prepared. The main components included water, cetyl alcohol, MIRASIL® ADME-NP (water (and) amodimethicone (and) trideceth-6), stearyl alcohol, behentrimonium methosulfate (and) Isopropanol.
Anti-Malassezia effect of hair conditioners was determined using cylinder diffusion assay that was used for testing shampoos, as described above. In brief, working cultures of M. restricta ATCC MYA-4611 and inoculated as described in disc diffusion assay. Cylinders were placed on inoculated agar plates. Aliquots (80 μL) of each sample (25% conditioner solution) were added to each cylinder. Agar plates were incubated at 30° C. for 4 days. After incubation, diameters of the clear inhibition zones around the discs were measured.

[5] = tested on: M. restricta ATCC MYA-4611; assay: Disc-diffusion assay, perfumery materials in DMSO, M. restricta; assay type: cell-based, Malassezia restricta; conditions: for zone of inhibition at 0.2 % / zone of inhibition at 1 % / zone of inhibition at 2 %: Malassezia restricta, 144 h; for Inhibition zone (mm) M. restricta: 20 μL on 6 mm disc, 6 days, NI means no inhibition zone
Experimental: (§2) Anti-Malassezia effect of perfumery materials in solvent in DMSO was determined using disc-diffusion assay, based on the method of J Mycol Infect 2018: 23: 91-98. In brief, working cultures of Malassezia strains were prepared from −80 C stock culture on mDixon agar plate (for M. furfur DSM 6170) or mLN agar plate (for M. restricta ATCC MYA-4611 and M. globosa ATCC MYA-4612), and cells were suspended in 0.9% saline, and spread onto mDixon or mLN agar surface to prepare lawn plate. Test samples solutions are prepared in DMSO to final concentrations of 0.2%, 1% or 2%. Discs (Whatman, 6 mm in diameter) were placed on inoculated agar plates with each Malassezia strains respectively, including M. furfur DSM 6170, M. restricta ATCC MYA-4611, and M. globosa ATCC MYA-4612. Aliquots (20 μL) of each sample solution was added to each disc. Agar plates were incubated at 30° C. for 3 days for M. furfur DSM 6170, and 6 days for M. restricta ATCC MYA-4611, and M. globosa ATCC MYA-4612. After incubation, diameters of the clear inhibition zones around the discs were measured. Inhibition zone greater than 6 mm are regarded as having anti-Malassezia effect.

M. globosa ATCC MYA-4612 [6] = assay: Disc-diffusion assay, perfumery materials in DMSO, M. globosa; assay type: cell-based, Malassezia globosa; conditions: for zone of inhibition at 0.2 % / zone of inhibition at 1 % / zone of inhibition at 2 %: Malassezia globosa, 144 h; for Inhibition zone (mm) M. globosa: 20 μL on 6 mm disc, 6 days, NI means no inhibition zone
Experimental: as §2

M. restricta = assay: Disc-diffusion assay, combinations with piroctone olamine (PO) in DMSO, M. restricta; assay type: cell-based, Malassezia restricta; conditions: 4 days, ratio greater than 1.0 = boosting effect
Experimental: Anti-Malassezia effect of combinations of PO and perfumery materials in solvent DMSO against M. restricta was determined using disc-diffusion assay as described above. Aliquots (20 μL) of each sample solution was added to each disc. Agar plates were incubated at 30° C. for 4 days. After incubation, diameters of the clear inhibition zones around the discs were measured. Ratio of inhibition zone diameter of each combination to that of PO only were calculated. […] Anti-Malassezia effect of combinations of PO and perfumery raw materials mixtures in solvent DMSO was determined using disc-diffusion assay, as described above. Aliquots (20 μL) of each sample solution was added to each disc. Agar plates were incubated at 30° C. for 4 days. After incubation, diameters of the clear inhibition zones around the discs were measured. Ratio of inhibition zone diameter of each combination to that of PO only were calculated.

[7] = tested on: Malassezia furfur DSM 6170; assay: MIC assay on Malassezia furfur DSM 6170 (resazurin); assay type: cell-based; conditions: 30° C., 48 h aerobically, dilutions 29 to 10000 ppm; for MIC: Malassezia furfur, DSM6170
Experimental: The MIC assay for Malassezia furfur DSM 6170 was modified based on the method in Journal of Clinical Microbiology 2017, Vol 55: 1883-1893. In brief, working culture was prepared from stock cultures stored at −80° C. to obtain a cell suspension as the inoculum. Serial dilutions of samples, 29 to 10000 ppm, were tested to determine the MIC values for growth of Malassezia furfur DSM 6170 after at 30° C. for 48 h aerobically. Resazurin was used as growth indicator.
(§3) A total of 26 perfumery materials were examined for an inhibition effect on Malassezia furfur and Staphylococcus aureus.

[8] = tested on: Staphylococcus aureus ATCC 6538; assay: MIC assay on Staphylococcus aureus ATCC 6538; assay type: cell-based; conditions: TSB, 37° C., 24 h aerobically, dilutions 29 to 10000 ppm; for MIC: Staphylococcus aureus, ATCC6538, read-out: MIC (ppm) S. aureus
Experimental: MIC assay for Staphylococcus aureus ATCC 6538 is based on Clinical Laboratory Standard Institute: CLSI/NCCLS M07-A8. Cell suspension of working cultures of S. aureus was prepared following the instructions of culture provider ATCC, USA.
as §3

M. furfur DSM 6170 [9] = assay: Disc-diffusion assay, perfumery materials in DMSO, M. furfur; assay type: cell-based, Malassezia furfur; conditions: for zone of inhibition at 2 %: Malassezia furfur, DSM6170, 72 h
Experimental: as §2

Compound | Inhibition zone (mm) M. globosa (M. globosa ATCC MYA-4612 [1]) [mm] | Inhibition zone (mm) M. restricta [2] [mm] | zone of inhibition at 0.2 % [5] [mm] | zone of inhibition at 1 % [5] [mm] | zone of inhibition at 2 % [5] [mm] | zone of inhibition at 1 % (M. globosa ATCC MYA-4612 [6]) [mm] | Ratio of inhibition zone diameter (0.5% PRM + 0.1% PO) to 0.1% PO (M. restricta) | MIC [7] [µg/mL] | MIC [8] [µg/mL] | zone of inhibition at 2 % (M. furfur DSM 6170 [9]) [mm] | zone of inhibition at 2 % (M. globosa ATCC MYA-4612 [6]) [mm] | other results
C=CCc1ccc(O)c(OC)c1 [2-methoxy-4-(2-propen-1-yl)phenol] | 8.2 | 7.3 |  |  |  |  |  |  |  |  |  | 
CC(=O)N1CCN(c2ccc(OCC3COC(Cn4ccnc4)(c4ccc(Cl)cc4Cl)O3)cc2)CC1 (centres unmarked) [ketoconazole] |  |  |  |  |  |  |  |  |  |  |  | Inhibition zone (mm) on M. furfur (M. furfur DSM 6170 [3]; Table 7, 0.1% in DMSO): 22.3 mm; Inhibition zone (mm) on M. furfur (M. furfur DSM 6170 [3]; Table 7, 0.2% in DMSO): 24.6 mm; Inhibition zone (mm) on M. furfur (M. furfur DSM 6170 [3]; Table 7, 0.3% in DMSO): 24.5 mm; Inhibition zone (mm) on M. furfur (M. furfur DSM 6170 [3]; Table 7, 0.4% in DMSO): 24.9 mm
Cc1cc(CC(C)CC(C)(C)C)n(O)c(=O)c1.NCCO (centres unmarked) [Piroctone Olamine (PO), Piroctone Olamine] |  |  |  |  |  |  |  |  |  |  |  | Inhibition zone diameter (mm) against M. restricta [4]: No inhibition zone; Inhibition zone (mm) on M. furfur (M. furfur DSM 6170 [3]; Table 5, 0.19% in DMSO, 6 mm disc): 11.8 mm
CC/C=C\CC/C=C/C=O [(2E,6Z)-2,6-nonadienal] | 12.8 | 11.1 | 7.7 | > 40 | > 40 | > 40 | 3.4 | 44 (≈ 318 µM) | 233 (≈ 1690 µM) | 13.5 |  | zone of inhibition at 0.2 % (M. globosa ATCC MYA-4612 [6]): 12.4 mm; Ratio of inhibition zone diameter (0.2% PRM + 0.1% PO) to 0.1% PO (M. restricta): 1.2; Inhibition zone (mm) on M. furfur (M. furfur DSM 6170 [3]; Table 5, 0.75% in DMSO, 6 mm disc): 7.6 mm; Inhibition zone (mm) on M. furfur (M. furfur DSM 6170 [3]; Table 6, 1% in DMSO): 11.4 mm; Inhibition zone (mm) on M. furfur (M. furfur DSM 6170 [3]; Table 7, 1% in DMSO): 14.1 mm
CCCCCCCCC/C=C/C=O [(2E)-2-dodecenal] |  |  | 10 | 14.4 | 18.1 | 15.2 | 2.1 | 148 (≈ 812 µM) | 49 (≈ 269 µM) | 12.6 | 17.9 | Ratio of inhibition zone diameter (1% PRM + 0.35% PO) to 0.35% PO (M. restricta): 1.2
CCCc1cccc(O)c1 [3-propylphenol] | 10.2 | 7.7 |  |  |  |  |  |  |  |  |  | 
cyclopropylmethyl (3Z)-3-hexenoate + cyclopropylmethyl (3E)-3-hexenoate |  |  |  |  |  |  |  |  |  |  |  | Inhibition zone (mm) M. restricta ([5]; 0.2% in DMSO): 6.3 mm; Inhibition zone (mm) M. restricta ([5]; 2% in DMSO): 11.0 mm; Inhibition zone (mm) M. globosa (M. globosa ATCC MYA-4612 [6]; 0.2% in DMSO): 8.7 mm; Inhibition zone (mm) M. globosa (M. globosa ATCC MYA-4612 [6]; 2% in DMSO): 13.0 mm; MIC (ppm) M. furfur [7]: 333 ppm; MIC (ppm) S. aureus [8]: 625 ppm; Inhibition zone (mm) M. furfur (M. furfur DSM 6170 [9]; 2% in DMSO, 20 μL on 6 mm disc, 3 days, NI means no inhibition zone): 8.0 mm
O=C/C=C/c1ccccc1 [cinnamaldehyde, (E)-3-phenyl-2-propenal] |  |  | 8.4 | 34.5 | 33.3 | 17.6 | 3.4 | 99 (≈ 749 µM) | 293 (≈ 2220 µM) | 16.5 | 27.4 | Ratio of inhibition zone diameter (0.2% PRM + 0.1% PO) to 0.1% PO (M. restricta): 1.4; Ratio of inhibition zone diameter (0.2% PRM + 0.35% PO) to 0.35% PO (M. restricta): 1.3
CC(C)=CCC/C(C)=C/C=O [citral, (Z)-3,7-dimethyl-2,6-octadienal+(E)-3,7-dimethyl-2,6-octadienal] |  |  | 6.2 | 7.1 | > 40 |  |  | 222 (≈ 1460 µM) | 450 (≈ 2960 µM) | 8.6 | 8.7 | zone of inhibition at 0.2 % (M. globosa ATCC MYA-4612 [6]): 6.2 mm; Ratio of inhibition zone diameter (1% PRM + 0.35% PO) to 0.35% PO (M. restricta): 1.1
C/C(=C\c1ccc(C)cc1)CCC=O [(4E)-4-methyl-5-(4-methylphenyl)-4-pentenal] |  |  | 6.8 | 11.6 | 12 | 9 | 1.2 | 333 (≈ 1770 µM) | 75 (≈ 398 µM) | 7.5 | 10.5 | 

Reference: US20260207450A1, “ANTI-DANDRUFF COMPOSITIONS” (Firmenich SA, priority 2022, published 2026)
